In brackets after ≈: the same amount, converted by molar mass. Several values for one entry are separate records, joined by “and”; a condition that tells them apart may be missing. Identical values can stand only once. Like-named read-outs stand apart in the source and are kept apart here.
How the values were obtained:
[1] = cited from earlier work
[2] = Evaporation of I2 from I2 and I- mixed solutions in an open and well-ventilated space; assay type: physicochemical; details: initial I2 concentration 0.99 mm, open system
Excerpt: The effects of temperature, concentration of I2, and presence of I— on the evaporation of I2 in I2 and I— mixed solutions were investigated in an open and well-ventilated space. From the experiments, it was confirmed that the evaporation rate of I2 increased exponentially as the solution temperature increased, showing a similar trend with temperature dependence of the saturated vapor pressure of I2.
The phenomenon that I2 evaporation was expedited at higher temperature can be explained by temperature dependency of the evaporation enthalpy and saturated vapor pressure. For an open system, the vapor pressure of elemental iodine increases about 14 torr, or 0.27 psi.

In the case of `II` [Elemental iodine, Elemental iodine (I2)], the “free iodine which is soluble in water” value ([1]; 20° C.) is given as 290 ppm, the solubility in water ([1]; 20° C.) is given as 0.29 g/L (≈ 1.14 mM) and the solubility in water ([1]; 25° C.) is given as 0.33 g/l and 1.2 mM. The solubility in water ([1]; 50° C.) was 0.78 g/L (≈ 3.07 mM), the “free iodine which is soluble in water” value ([1]; 70° C.) was 1,100 ppm and the “free iodine which is soluble in water” value ([1]; 80° C.) was 1,250 ppm. The solubility in water ([1]; 80° C.) was 1.25 g/L (≈ 4.92 mM), the “lapsed time required to reduce less than 10% of the initial concentration” value ([2]; 50° C.) was roughly 30 min and the “lapsed time required to reduce less than 10% of the initial concentration” value ([2]; 80° C.) was roughly 7 min.
